Laboratory results published in paper PMC8624189, “Phenolic Profiles and Biological Activities of Extracts from Edible Wild Fruits Ehretia tinifolia and Sideroxylon lanuginosum” (Foods, 2021).
Values after ≈ are worked out from the molar mass of the structure shown. Values belong to the compound of their own block, whether it stands above or below them.

Key:
human erythrocytes = assay: Protective effect on human erythrocytes (AAPH-induced hemolysis); assay type: cell-based; conditions: Erythrocyte, 37 °C, 3 h, read-out: Hemolytic Inhibition IC50
Method: Hemolysis was induced by peroxyl radicals generated by AAPH (2-2'-Azobis (2-amidinopropane dihydrochloride) according to the methodology of Silva-Beltrán et al.. Then, 5 mL of blood was obtained from healthy human volunteers by venipuncture and collected into tubes containing EDTA as an anticoagulant. Erythrocytes were separated from plasma by centrifugation at 1500 rpm for 10 min at room temperature and washed three times with five volumes of phosphate-buffered saline (PBS) (37 mM of NaCl, 2.7 mM of KCI, 8 mM of Na2HPO4, and 2 mM of KH2PO4 w/v) at pH 7.4. Later, erythrocytes were suspended in four volumes of PBS solution to obtain a density of 8 × 10^9 cells/mL. The addition of AAPH to the suspension of washed erythrocytes induces oxidation of membrane lipids and proteins, resulting in hemolysis. The erythrocyte suspension (250 μL) was mixed with 250 μL of fruit extracts dissolved in PBS at concentrations of 500, 750, 1000, 2000 μg/mL and 250 μL of 300 mM AAPH in PBS. The reaction mixture was shaken gently while being incubated at 37 °C for 3 h. […] The supernatant's absorbance was measured in a microplate reader (Agilent BioTek Epoch, Santa Clara, CA, United States) at 540 nm. Percent inhibition was calculated by the following equation:% Inhibition = [[…] × 100] where AAAPH is the absorbance of AAPH at 540 nm and As is the absorbance of the extracts at 540 nm. […]

erythrocytes = conditions: cited from earlier work
MCF-7 cells = conditions: read-out: EC50 in inhibiting MCF-7 cell growth; cited from earlier work
HeLa cells = assay: Antiproliferative activity, Alamar Blue, HeLa; assay type: cell-based; conditions: Homo sapiens, 24 h exposure, read-out: Half Maximal Inhibitory Concentration HeLa
Method: (§1) The antiproliferative effects of extracts of E. tinifolia and S. lanuginosum were assessed using the method described previously by Viveros-Valdez, et al.. HeLa (ATCC® CCL-2), MCF-7 (ATCC® HTB-22) and HT-29 (ATCC® HTB-38) cancer cell lines were used. The cells were seeded in 25 cm^2 tissue culture flasks in Dulbecco’s modified eagle medium (DMEM) mixed with Ham’s nutrients (Ham’s F-12) and supplemented with 10% fetal bovine serum (FBS), adjusting the pH to 7.2. A mixture of antibiotics composed of penicillin and streptomycin (10,000 IU/mL: 10,000 µg/mL; 1 mL of mixture/1 L of medium) was added. Cells were maintained at 37 °C in an incubator under a 5% CO2/95% air atmosphere at constant humidity. Cells were harvested by trypsinization, counted with a hemocytometer, and their viability was confirmed by Trypan Blue (0.4%). The different cancer cell lines were seeded with 5000 cells per well in a 96 well plate.

HT-29 cells = assay: Antiproliferative activity, Alamar Blue, HT-29; assay type: cell-based; conditions: Homo sapiens, 24 h exposure, read-out: Half Maximal Inhibitory Concentration HT-29
Method: as §1

SMILES: O=C1O[C@H]([C@@H](O)CO)C(O)=C1O [ascorbic acid]
- IC50 (human erythrocytes): 289 ± 20 µg/mL (≈ 1640 µM)

SMILES: Oc1cc(O)c2c(c1)O[C@H](c1ccc(O)c(O)c1)[C@H](O)C2 [epicatechin]
- hemolysis inhibition IC50 (erythrocytes): 42.3 µg/mL

SMILES: O=c1c(O[C@@H]2O[C@H](CO)[C@@H](O)[C@H](O)[C@H]2O)c(-c2ccc(O)c(O)c2)oc2cc(O)cc(O)c12 [QG, quercetin glucoside]
- EC50 (MCF-7 cells): 46.4 µM

- IC50 (HeLa cells): 11 ± 2 µg/mL (≈ 12.9 µM)
- IC50 (HT-29 cells): 15 ± 1 µg/mL (≈ 17.6 µM)
SMILES: CC(=O)O[C@H]1C(=O)[C@@]2(C)[C@H]([C@H](OC(=O)c3ccccc3)[C@]3(O)C[C@H](OC(=O)[C@H](O)[C@@H](NC(=O)c4ccccc4)c4ccccc4)C(C)=C1C3(C)C)[C@]1(OC(C)=O)CO[C@@H]1C[C@@H]2O [taxol, Taxol]
